# Values quoted from earlier work in US9877937B2, “Compounds and methods for treating aberrant adrenocortical cell disorders” (Millendo Therapeutics, Inc., priority 2012, dated 2018).
# System: adrenocortical carcinoma (ACC)
# Conditions: cited from earlier work
smiles,measurement,setting,value
Clc1ccc(C(c2ccccc2Cl)C(Cl)Cl)cc1 (centres unmarked) [mitotane],proportion of patients with increased progression-free survival,ACC patients,one-quarter to one-third
same,elimination half-life,accumulates in fat tissue,months
same,average delay of disease progression,patients that derive a therapeutic benefit,five
same,blood level required for therapeutic benefit,patients,14000 ng/mL
same,toxic blood level,patients,20 mg/L
